According to patent US20240246916A1, “7-NITRO-8-HYDROXYQUINOLINE DERIVATIVES, PREPARATION METHOD THEREFORE AND MEDICAL USE THEREOF” (Jiangsu Yahong Meditech Co., Ltd., priority 2021, published 2024):
≈ marks a conversion by molar mass, not a printed value. Where two headings read alike, the source gives them in different places.

Tests used:
Type in all cases: cell-based
[1] = test system: Escherichia coli (carbapenem-resistant clinical isolate; ATCC25922); test: MIC by micro broth dilution (CLSI), Escherichia coli; conditions: Escherichia coli
Text: (§1) The test bacteria were one strain of clinically isolated carbapenem-resistant Escherichia coli, two strains of carbapenem-resistant Acinetobacter baumannii, two strains of methicillin-resistant Staphylococcus aureus, two strains of sensitive Staphylococcus aureus, and 7 strains of Klebsiella pneumoniae. Duplicate strains isolated from the same patient were eliminated. There were also […] quality control strains Escherichia coli ATCC25922, Acinetobacter baumannii ATCC19606, Staphylococcus aureus ATCC29213, Klebsiella pneumoniae ATCC BAA-1705, ATCC 43816, ATCC BAA-2472, ATCC-BAA-1898, ATCC-BAA-1899, NCTC 13440 and ATCC-BAA-2470. There were 24 strains in total.
(§2) According to the recommendations of relevant documents of the American Clinical and Laboratory Standards Institute (CLSI), the micro broth dilution method was used to determine the MIC of the compounds of the present invention against clinically isolated strains. • 3.1 Formulation of antibacterial drug: All the compounds of the present invention were dissolved in DMSO. The drug concentration range was 128 mg/L to 0.06 mg/L. • 3.2 Culture medium: The drug susceptibility test used cation adjusted Mueller-Hinton broth (CAMHB). • 3.3 Amount of inoculum: The test bacteria cultured overnight were adjusted to 0.5 McFarland turbidity by the direct colony suspension method, and diluted 100 folds, the final inoculum amount was 10^5 CFU/mL. • 3.4 Culture conditions: The test bacteria were cultured at 35±2° C. for 20 hours in air.
(§3) The drug susceptibility test results were interpretated by reference to CLSI 2019 M100 29th edition criteria.
(§4) The quality control strains of the drug susceptibility test were Escherichia coli ATCC 25922, Acinetobacter baumannii ATCC 19606, Staphylococcus aureus ATCC 29213, Klebsiella pneumoniae ATCC BAA-1705, ATCC 43816, ATCC BAA-2472, ATCC-BAA-1898, ATCC-BAA-1899, NCTC 13440 and ATCC-BAA-2470.
(§5) The results of drug susceptibility test were statistically analyzed by WHONET software (version 5.6).

[2] = test system: Acinetobacter baumannii (carbapenem-resistant clinical isolates; ATCC19606); test: MIC by micro broth dilution (CLSI), Acinetobacter baumannii; conditions: Acinetobacter baumannii; for MIC50 / MIC90: ATCC19606
Text: as §1, §2, §3, §4, §5

[3] = test system: Staphylococcus aureus (methicillin-resistant and sensitive clinical isolates; ATCC29213); test: MIC by micro broth dilution (CLSI), Staphylococcus aureus
Text: as §1, §2, §3, §4, §5

[4] = ATCC25922, Clinical strain, read-out: MIC50
[5] = ATCC25922, Clinical strain, read-out: MIC90
[6] = Standard strain ATCC25922, read-out: MIC
[7] = Clinical strain, read-out: MIC50
[8] = Clinical strain, read-out: MIC90
[9] = Standard strain ATCC19606, read-out: MIC
[10] = Standard strain ATCC29213, read-out: MIC

Row | Structure (SMILES) | MIC50 ([1]; clinical strains, micro broth dilution, CAMHB, 35±2° C., 20 hours, read-out: MIC50 Escherichia coli Clinical strain) | MIC90 ([1]; clinical strains, micro broth dilution, CAMHB, 35±2° C., 20 hours, read-out: MIC90 Escherichia coli Clinical strain) | MIC ([1]; standard strain ATCC25922, micro broth dilution, CAMHB, 35±2° C., 20 hours, read-out: MIC Escherichia coli Standard strain ATCC25922) | MIC50 ([2]; clinical strains, micro broth dilution, CAMHB, 35±2° C., 20 hours, read-out: MIC50 Acinetobacter baumannii Clinical strain) | MIC90 ([2]; clinical strains, micro broth dilution, CAMHB, 35±2° C., 20 hours, read-out: MIC90 Acinetobacter baumannii Clinical strain) | MIC ([2]; standard strain ATCC19606, micro broth dilution, CAMHB, 35±2° C., 20 hours, read-out: MIC Acinetobacter baumannii Standard strain ATCC19606) | MIC50 ([3]; clinical strains, micro broth dilution, CAMHB, 35±2° C., 20 hours, read-out: MIC50 Staphylococcus aureus Clinical strain) | MIC90 ([3]; clinical strains, micro broth dilution, CAMHB, 35±2° C., 20 hours, read-out: MIC90 Staphylococcus aureus Clinical strain) | MIC ([3]; standard strain ATCC29213, micro broth dilution, CAMHB, 35±2° C., 20 hours, read-out: MIC Staphylococcus aureus Standard strain ATCC29213) | MIC50 [1, 4] | MIC90 [1, 5] | MIC [1, 6] | MIC50 [2, 7] | MIC90 [2, 8] | MIC [2, 9] | MIC50 [3, 7] | MIC90 [3, 8] | MIC [3, 10]
1 | CCOC(=O)c1cnc2c(O)c([N+](=O)[O-])ccc2c1 [Example 88, ethyl 8-hydroxy-7-nitroquinoline-3-carboxylate] | – | – | – | – | – | – | – | – | – | > 128 µg/mL | > 128 µg/mL | > 128 µg/mL | > 128 µg/mL | > 128 µg/mL | 128 µg/mL (≈ 488 µM) | 4 µg/mL (≈ 15.3 µM) | 16 µg/mL (≈ 61 µM) | 16 µg/mL (≈ 61 µM)
2 | O=[N+]([O-])c1ccc2c(Cl)c(-c3ccccc3)cnc2c1O [Example 82, 4-chloro-7-nitro-3-phenylquinolin-8-ol] | – | – | – | – | – | – | – | – | – | > 128 µg/mL | > 128 µg/mL | > 128 µg/mL | > 128 µg/mL | > 128 µg/mL | 128 µg/mL (≈ 426 µM) | 1 µg/mL (≈ 3.33 µM) | 1 µg/mL (≈ 3.33 µM) | 1 µg/mL (≈ 3.33 µM)
3 | Cc1cnc2c(O)c([N+](=O)[O-])cc(Cl)c2c1 [Example 83, 5-chloro-3-methyl-7-nitroquinolin-8-ol] | – | – | – | – | – | – | – | – | – | 128 µg/mL (≈ 536 µM) | 128 µg/mL (≈ 536 µM) | 32 µg/mL (≈ 134 µM) | 32 µg/mL (≈ 134 µM) | 64 µg/mL (≈ 268 µM) | 16 µg/mL (≈ 67 µM) | 4 µg/mL (≈ 16.8 µM) | 4 µg/mL (≈ 16.8 µM) | 4 µg/mL (≈ 16.8 µM)
4 | O=[N+]([O-])c1ccc2c(CN3CCOCC3)ccnc2c1O [Example 89, 4-(morpholinomethyl)-7-nitroquinolin-8-ol] | – | – | – | – | – | – | – | – | – | > 128 µg/mL | > 128 µg/mL | > 128 µg/mL | 128 µg/mL (≈ 442 µM) | 128 µg/mL (≈ 442 µM) | 128 µg/mL (≈ 442 µM) | 64 µg/mL (≈ 221 µM) | 64 µg/mL (≈ 221 µM) | 64 µg/mL (≈ 221 µM)
5 | O=[N+]([O-])c1ccc2c(C(F)F)ccnc2c1O [Example 81, 4-(difluoromethyl)-7-nitroquinolin-8-ol] | – | – | – | – | – | – | – | – | – | 32 µg/mL (≈ 133 µM) | 128 µg/mL (≈ 533 µM) | 16 µg/mL (≈ 66.6 µM) | 16 µg/mL (≈ 66.6 µM) | 32 µg/mL (≈ 133 µM) | 16 µg/mL (≈ 66.6 µM) | 8 µg/mL (≈ 33.3 µM) | 16 µg/mL (≈ 66.6 µM) | 16 µg/mL (≈ 66.6 µM)

Now from value to molecule:

Row | MIC50 ([1]; clinical strains, micro broth dilution, CAMHB, 35±2° C., 20 hours, read-out: MIC50 Escherichia coli Clinical strain) | MIC90 ([1]; clinical strains, micro broth dilution, CAMHB, 35±2° C., 20 hours, read-out: MIC90 Escherichia coli Clinical strain) | MIC ([1]; standard strain ATCC25922, micro broth dilution, CAMHB, 35±2° C., 20 hours, read-out: MIC Escherichia coli Standard strain ATCC25922) | MIC50 ([2]; clinical strains, micro broth dilution, CAMHB, 35±2° C., 20 hours, read-out: MIC50 Acinetobacter baumannii Clinical strain) | MIC90 ([2]; clinical strains, micro broth dilution, CAMHB, 35±2° C., 20 hours, read-out: MIC90 Acinetobacter baumannii Clinical strain) | MIC ([2]; standard strain ATCC19606, micro broth dilution, CAMHB, 35±2° C., 20 hours, read-out: MIC Acinetobacter baumannii Standard strain ATCC19606) | MIC50 ([3]; clinical strains, micro broth dilution, CAMHB, 35±2° C., 20 hours, read-out: MIC50 Staphylococcus aureus Clinical strain) | MIC90 ([3]; clinical strains, micro broth dilution, CAMHB, 35±2° C., 20 hours, read-out: MIC90 Staphylococcus aureus Clinical strain) | MIC ([3]; standard strain ATCC29213, micro broth dilution, CAMHB, 35±2° C., 20 hours, read-out: MIC Staphylococcus aureus Standard strain ATCC29213) | MIC50 [1, 4] | MIC90 [1, 5] | MIC [1, 6] | MIC50 [2, 7] | MIC90 [2, 8] | MIC [2, 9] | MIC50 [3, 7] | MIC90 [3, 8] | MIC [3, 10] | Structure (SMILES)
6 | 128 µg/mL (≈ 476 µM) | 128 µg/mL (≈ 476 µM) | 16 µg/mL (≈ 59.5 µM) | 16 µg/mL (≈ 59.5 µM) | 32 µg/mL (≈ 119 µM) | 8 µg/mL (≈ 29.7 µM) | 4 µg/mL (≈ 14.9 µM) | 16 µg/mL (≈ 59.5 µM) | 8 µg/mL (≈ 29.7 µM) | – | – | – | – | – | – | – | – | – | O=[N+]([O-])c1cc(Br)c2cccnc2c1O [Example 121, 5-bromo-7-nitroquinolin-8-ol]
7 | – | – | – | – | – | – | – | – | – | 128 µg/mL (≈ 465 µM) | 128 µg/mL (≈ 465 µM) | 64 µg/mL (≈ 232 µM) | 64 µg/mL (≈ 232 µM) | > 128 µg/mL | 128 µg/mL (≈ 465 µM) | > 128 µg/mL | > 128 µg/mL | > 128 µg/mL | CCN(CC)Cc1cc([N+](=O)[O-])c(O)c2ncccc12 [Example 94, 5-((diethylamino)methyl)-7-nitroquinolin-8-ol]
8 | – | – | – | – | – | – | – | – | – | 64 µg/mL | > 128 µg/mL | 64 µg/mL | 32 µg/mL | 128 µg/mL | 32 µg/mL | 32 µg/mL | 32 µg/mL | 32 µg/mL | CCN(CC)Cc1cnc2c(O)c([N+](=O)[O-])cc(Cl)c2c1.O=C(O)C(F)(F)F.O=C(O)C(F)(F)F [Example 90, 5-chloro-3-((diethylamino)methyl)-7-nitroquinolin-8-ol ditrifluoroacetate]
9 | – | – | – | – | – | – | – | – | – | 128 µg/mL (≈ 465 µM) | 128 µg/mL (≈ 465 µM) | 64 µg/mL (≈ 232 µM) | 64 µg/mL (≈ 232 µM) | 128 µg/mL (≈ 465 µM) | 64 µg/mL (≈ 232 µM) | 32 µg/mL (≈ 116 µM) | 64 µg/mL (≈ 232 µM) | 64 µg/mL (≈ 232 µM) | CCN(CC)Cc1cnc2c(O)c([N+](=O)[O-])ccc2c1 [Example 98, 3-((diethylamino)methyl)-7-nitroquinolin-8-ol]
10 | – | – | – | – | – | – | – | – | – | 16 µg/mL (≈ 66 µM) | 64 µg/mL (≈ 264 µM) | 8 µg/mL (≈ 33 µM) | 8 µg/mL (≈ 33 µM) | 8 µg/mL (≈ 33 µM) | 8 µg/mL (≈ 33 µM) | 2 µg/mL (≈ 8.24 µM) | 2 µg/mL (≈ 8.24 µM) | 4 µg/mL (≈ 16.5 µM) | O=[N+]([O-])c1c(F)c(Cl)c2cccnc2c1O [Example 110, 5-chloro-6-fluoro-7-nitroquinolin-8-ol]
